Results: patent publication US9221868B2, “Uridine di- or tri-phosphate derivatives and uses thereof” (BAR-ILAN UNIVERSITY, priority 2010, dated 2015)

Assays:
P2Y2-R = P2Y2-R (Homo sapiens, UniProt P41231); assay: [Ca2+]i increase in 1321N1 astrocytoma cells expressing P2Y2-R; format: cell-based; parameters: expressed in transfected cells; host or cells: 1321N1 astrocytoma cells; settings: 1321N1 astrocytoma cells, [Ca2+]i; n.d.r = no detectable response up to 100 μM
Protocol: (§1) Green fluorescent protein (GFP) constructs of human P2Y2-R, P2Y4-R and P2Y6-R were expressed in 1321N1 astrocytoma cells, which lack endogenous expression of P2X- and P2Y-receptors. The respective cDNA of the receptor gene was cloned into a pEGFPN1 vector. After transfection using FuGENE 6 Transfection Reagent (Roche Molecular Biochemicals, Mannheim, Germany), the cells were selected with 0.5 mg/ml G418 (geneticine; Merck Chemicals, Darmstadt, Germany) and grown in Dulbecco's modified Eagles' medium (DMEM) supplemented with 10% fetal calf serum, 100 U/ml penicillin and […] at 37° C. and 5% CO2. The expression and cell membrane localization of the respective P2Y receptors was confirmed through the analysis of the GFP fluorescence. The functionality of the expressed GFP-labeled receptor in cells was verified by recording a change of [Ca^2+]i after stimulation with the appropriate receptor agonist.
(§2) 1321N1 astrocytoma cells transfected with the respective plasmid for P2YR-GFP expression plated on coverslips (22 mm diameter) and grown to approximately 80% density were incubated with 2 μM fura 2/AM and 0.02% pluronic acid in Na-HBS buffer (Hepes buffered saline: 145 mM NaCl, 5.4 mM KCl, 1.8 mM CaCl2, 1 mM MgCl2, 25 mM glucose, 20 mM Hepes/Tris pH 7.4) for 30 min at 37° C. The cells were superfused (1 ml/min, 37° C.) with different concentrations of nucleotide in Na-HBS buffer, and the nucleotide-induced change of [Ca^2+]i was measured by detecting the respective emission intensity of fura 2/AM at 510 nm with after 340 nm and 380 nm excitations (Ubl et al., 1998). The average maximal amplitude of the responses and the respective standard errors were calculated from the ratio of the fura 2/AM fluorescence intensities with excitations at 340 nm and 380 nm (only MT-labeled cells were analysed). Microsoft Excel (Microsoft Corp., Redmond, Wash., USA) and SigmaPlot (SPSS Inc., Chicago, Ill., USA) were used to derive the concentration-response curves and EC50 values from the average response amplitudes obtained in at least three independent experiments (Ecke et al., 2006, 2008). Only cells with a clear MT-signal and with the typical calcium response kinetics upon agonist pulse application were included in the data analysis. The GFP-tagged P2Y receptors are suitable for pharmacological and physiological studies, as previously reported (Tulapurkar et al., 2004, 2006; Zylberg et al., 2007).
(§3) In this study, analogues 13-17 were tested for their potency and selectivity at P2Y2,4,6-receptors based on measurements of increases in intracellular calcium concentrations in 1321N1 astrocytoma cells transfected with the respective plasmid, as described in Materials and Methods, and the results are summarized in Table 2.

P2Y4-R = target: T1, P2Y4-R (Homo sapiens, UniProt P51582); assay: [Ca2+]i increase in 1321N1 astrocytoma cells expressing P2Y4-R; format: cell-based; settings: n.d.r = no detectable response up to 100 μM
T1 construct: expressed in transfected cells; host or cells: 1321N1 astrocytoma cells
T1 sequence (P51582 whole entry): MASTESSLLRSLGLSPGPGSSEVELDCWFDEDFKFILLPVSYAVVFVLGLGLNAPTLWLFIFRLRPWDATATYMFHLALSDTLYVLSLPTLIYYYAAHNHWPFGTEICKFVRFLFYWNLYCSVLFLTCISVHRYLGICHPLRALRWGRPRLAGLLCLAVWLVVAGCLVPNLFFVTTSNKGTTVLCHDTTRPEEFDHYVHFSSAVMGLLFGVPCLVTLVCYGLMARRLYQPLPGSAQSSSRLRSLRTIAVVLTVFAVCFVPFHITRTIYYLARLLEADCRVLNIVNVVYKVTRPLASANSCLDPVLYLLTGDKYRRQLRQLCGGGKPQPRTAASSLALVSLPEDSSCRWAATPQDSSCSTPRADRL
Protocol: as §1, §2, §3

P2Y6-receptor = P2Y6-receptor (Homo sapiens, UniProt Q15077); settings: Ginsburg-Shmuel et al., 2010; read-out: EC50 at P2Y6-receptor (literature); cited from earlier work
Sequence of P2Y6-receptor (Q15077 whole entry): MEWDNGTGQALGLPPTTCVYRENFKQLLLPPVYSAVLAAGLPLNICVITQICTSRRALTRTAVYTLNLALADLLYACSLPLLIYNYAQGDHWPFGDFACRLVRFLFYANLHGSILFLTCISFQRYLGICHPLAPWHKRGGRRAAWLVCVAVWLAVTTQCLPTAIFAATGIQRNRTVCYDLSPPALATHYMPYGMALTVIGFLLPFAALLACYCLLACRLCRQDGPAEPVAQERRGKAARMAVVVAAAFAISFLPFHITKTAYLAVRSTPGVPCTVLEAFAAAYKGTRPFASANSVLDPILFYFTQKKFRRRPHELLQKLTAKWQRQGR

Sequence of P2Y2-R (P41231 whole entry): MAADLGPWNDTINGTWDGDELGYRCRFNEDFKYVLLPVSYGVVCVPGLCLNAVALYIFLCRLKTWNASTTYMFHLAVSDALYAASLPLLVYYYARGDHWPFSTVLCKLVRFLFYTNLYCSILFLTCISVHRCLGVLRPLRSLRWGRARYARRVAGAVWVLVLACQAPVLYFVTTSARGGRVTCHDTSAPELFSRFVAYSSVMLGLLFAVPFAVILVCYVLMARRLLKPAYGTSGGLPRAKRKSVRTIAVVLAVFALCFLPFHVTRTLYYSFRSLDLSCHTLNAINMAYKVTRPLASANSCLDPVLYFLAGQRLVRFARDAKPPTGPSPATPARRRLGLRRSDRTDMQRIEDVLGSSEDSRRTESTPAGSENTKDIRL

Potencies (EC50) at the P2Y2-R (P2Y2-R) | Potencies (EC50) at the P2Y4-R (P2Y4-R) | SMILES | EC50 (P2Y6-receptor) [nM]
n.d.r | n.d.r | [BH3-][P+](O)(OCC1OC(n2cc(OC)c(=O)[nH]c2=O)C(O)C1O)OP(=O)(O)O (single isomer, unassigned) [Analogue 13A, 5-methoxyuridine-5′-O-(α-boranodiphosphate)] | –
– | – | O=c1ccn([C@@H]2O[C@H](COP(=O)(O)OP(=O)(O)O)[C@@H](O)[C@H]2O)c(=O)[nH]1 [UDP, reference compound] | 140
